Data from PubChem BioAssay AID2060506 (Molecular Pharmacology Branch, DTP, NCI, 2025).

System: 598228-144-R-J1-PDC complex spheroid viability
Assay: Anticancer human tumor 598228-144-R-J1-PDC patient-derived serous endometrial adenocarcinoma cell line growth inhibition [GQUAD]
Conditions: for IC50: curve of first compound; for viability, T/C: stronger effect = lower value
Description: DNA G-quadruplex Stabilizer Agents in Combinations in Complex Spheroids
A high-throughput screen of multi-cell type tumor spheroids was designed to identify active combinations of DNA G-quadruplex stabilizer agents and targeted small molecules. Complex spheroids include a stromal component modeled by human endothelial cells (HUVEC) and fibroblasts modeled by human mesenchymal stem cells (MSCs). The concentration ranges selected for each drug and investigational agent were based upon clinically achievable concentrations if the clinical Cmax of the agent was known.
Compounds. The drugs and investigational agents: pidnarulex (CX-5461; NSC782164), APTO-253 (NSC789042), BRACO-19 (NSC847499), peposertib (NSC802822), ceralasertib (NSC780249), elimusertib (NSC800525), camonsertib (NSC841442), AZD-1390 (NSC803789), olaparib (NSC753686), talazoparib (NSC767125), ART-558 (NSC835418), sotorasib (NSC818433), MRTX-1133 (NSC836407), SN-38 (NSC673596), topotecan (NSC609699), etoposide (NSC141540), doxorubicin (NSC123127), gemcitabine (NSC613327), 5-fluorouracil (NSC19893), paclitaxel (NSC125973), vemurafenib (NSC761431), panobinostat (NSC761190), R-306465 (JNJ-16241199; NSC773264), adavosertib (NSC754352), TP-3654 (NSC805149), carboplatin (NSC241240), KSQ-4279 (NSC840948), and staurosporine (NSC755774) were obtained from the National Cancer Institute (NCI) Developmental Therapeutics Program Chemical Repository (34). The FDA-approved anticancer drug set is available from the NCI Developmental Therapeutics Program. […] The stock solutions were prepared in dimethyl sulfoxide (DMSO, Sigma-Aldrich, St. Louis, MO, cat. D2650) at 800-fold the tested concentration and stored at -70 degrees C prior to their use. All drugs and investigational agents were tested over a range starting from a high concentration at or near the clinical Cmax and decreasing in half-log increments. If the clinical Cmax for an agent had not been determined, the highest concentration tested was 10 microM.
2.3 Cell Culture. All cells were maintained in an incubator at 37 degrees C and 5% CO2 with 95% humidity. The PDC lines were cultured according to standard operating procedures established by the NCI PDMR. All PDCs were thawed and cultured in Matrigel-coated flasks prepared with a working solution of 1X Ham's F-12 nutrient mix, without supplementation (Invitrogen, cat. 11765054), 100 U/mL penicillin-streptomycin (Invitrogen, cat. 15140122), and 2.5% Matrigel (Corning Inc., cat. 354248) for the first three passages. The 857933-349-R-J2-PDC line was cultured in 6C/Colon 1B media, which includes advanced DMEM/F-12 (Thermo Fisher Scientific, cat. 12634028), 10 mM HEPES (Thermo Fisher Scientific, cat. 15630080), 1X GlutaMAX supplement (Thermo Fisher Scientific, cat. 35050061), 0.1 mg/mL primocin (InvivoGen, cat. ant-pm-2), 10% defined fetal bovine serum, heat inactivated (HyClone Laboratories Inc., cat. SH30070.03HI), 50% L-WRN conditioned media (ATCC, cat. CRL-3276), 1.25 mM N-Acetyl-L-cysteine (Sigma-Aldrich, cat. A9165), 10 mM nicotinamide (Sigma-Aldrich, cat. N0636), 1X B-27 supplement (Thermo Fisher Scientific, cat. 17504044), 1X N-2 supplement (Thermo Fisher Scientific, cat. 17502048), 10 microM Y-27632 dihydrochloride (Tocris Bioscience, cat. 1254), and 50 ng/mL human EGF recombinant protein (Thermo Fisher Scientific, cat. PHG0311). The 485176-168-R4-J1-PDC line was cultured in Panc media, which includes all 6C/Colon 1B media components plus 100 ng/mL human FGF-10 (Thermo Fisher Scientific, cat. 100-26), 500 nM SB-431542 (Selleckchem, cat. S1067), and gastrin (Tocris, cat. 3006).
[…]

[1] = second compound 0.0316 µM, first compound 0.0316 µM
[2] = second compound 0.0316 µM, first compound 0.316 µM
[3] = second compound 0.1 µM, first compound 0.0316 µM
[4] = second compound 0.1 µM, first compound 0.316 µM
[5] = second compound 0.316 µM, first compound 0.0316 µM
[6] = second compound 0.316 µM, first compound 0.316 µM
[7] = second compound 1 µM, first compound 0.0316 µM
[8] = second compound 1 µM, first compound 0.316 µM
[9] = second compound 3.16 µM, first compound 0.0316 µM
[10] = second compound 3.16 µM, first compound 0.316 µM
[11] = second compound 10 µM, first compound 0.0316 µM
[12] = second compound 10 µM, first compound 0.316 µM
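Note: spheroids exposed to the agents for one week before reading.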
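Throughout, for viability, T/C: percent of vehicle DMSO control viability so 100% = untreated growth.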

Compound `CCc1c2c(nc3ccc(O)cc13)-c1cc3c(c(=O)n1C2)COC(=O)[C@]3(O)CC` + Cc1cnc(CNC(=O)c2c(=O)c3ccc(N4CCCN(C)CC4)nc3n3c2sc2ccccc23)cn1 has an IC50 (second compound 0.0316 µM) of 0.018 µM, an IC50 (second compound 0.1 µM) of 0.0149 µM and an IC50 (second compound 0.316 µM) of 0.0164 µM. The IC50 (second compound 1 µM) was 0.0222 µM, the IC50 (second compound 3.16 µM) was 0.0128 µM and the IC50 (second compound 10 µM) was under 0.000999 µM. For the same compound, the viability, T/C (second compound 0.0316 µM, first compound 0.000999 µM) was 62.5%, the viability, T/C (second compound 0.0316 µM, first compound 0.00316 µM) was 68% and the viability, T/C (second compound 0.0316 µM, first compound 0.00999 µM) was 55.6%. The viability, T/C [1] was 42.6%, the viability, T/C (second compound 0.0316 µM, first compound 0.0999 µM) was 27.3% and the viability, T/C [2] was 15.3%. It also gave a viability, T/C (second compound 0.1 µM, first compound 0.000999 µM) of 58.7%, a viability, T/C (second compound 0.1 µM, first compound 0.00316 µM) of 56.1% and a viability, T/C (second compound 0.1 µM, first compound 0.00999 µM) of 60.4%. For the same compound, the viability, T/C [3] was 34.1%, the viability, T/C (second compound 0.1 µM, first compound 0.0999 µM) was 22.6% and the viability, T/C [4] was 15%. It also gave a viability, T/C (second compound 0.316 µM, first compound 0.000999 µM) of 69.3%, a viability, T/C (second compound 0.316 µM, first compound 0.00316 µM) of 76.8% and a viability, T/C (second compound 0.316 µM, first compound 0.00999 µM) of 45.4%. The viability, T/C [5] was 47.3%, the viability, T/C (second compound 0.316 µM, first compound 0.0999 µM) was 21.5% and the viability, T/C [6] was 2.76%. The viability, T/C (second compound 1 µM, first compound 0.000999 µM) was 68.5%, the viability, T/C (second compound 1 µM, first compound 0.00316 µM) was 63.5% and the viability, T/C (second compound 1 µM, first compound 0.00999 µM) was 64.2%. It also gave a viability, T/C [7] of 43.3%, a viability, T/C (second compound 1 µM, first compound 0.0999 µM) of 19.6% and a viability, T/C [8] of 0.43%. The viability, T/C (second compound 3.16 µM, first compound 0.000999 µM) was 70.3%, the viability, T/C (second compound 3.16 µM, first compound 0.00316 µM) was 63% and the viability, T/C (second compound 3.16 µM, first compound 0.00999 µM) was 55.8%. It also gave a viability, T/C [9] of 27.9%, a viability, T/C (second compound 3.16 µM, first compound 0.0999 µM) of 0.43% and a viability, T/C [10] of 0.31%. For the same compound, the viability, T/C (second compound 10 µM, first compound 0.000999 µM) was 54%, the viability, T/C (second compound 10 µM, first compound 0.00316 µM) was 39.5% and the viability, T/C (second compound 10 µM, first compound 0.00999 µM) was 44%. It also gave a viability, T/C [11] of 1.02%, a viability, T/C (second compound 10 µM, first compound 0.0999 µM) of 0.4% and a viability, T/C [12] of 0.35%.

With `O=C(c1cc(Cc2n[nH]c(=O)c3ccccc23)ccc1F)N1CCN(C(=O)C2CC2)CC1` + Cc1cnc(CNC(=O)c2c(=O)c3ccc(N4CCCN(C)CC4)nc3n3c2sc2ccccc23)cn1 the IC50 (second compound 0.0316 µM) was over 10 µM, the IC50 (second compound 0.1 µM) was over 10 µM and the IC50 (second compound 0.316 µM) was 9.02 µM. The IC50 (second compound 1 µM) was over 10 µM, the IC50 (second compound 3.16 µM) was over 10 µM and the IC50 (second compound 10 µM) was under 0.0316 µM. The viability, T/C [1] was 82.4%, the viability, T/C (second compound 0.0316 µM, first compound 0.1 µM) was 89.4% and the viability, T/C [2] was 73%. The viability, T/C (second compound 0.0316 µM, first compound 1 µM) was 68.7%, the viability, T/C (second compound 0.0316 µM, first compound 3.16 µM) was 84.4% and the viability, T/C (second compound 0.0316 µM, first compound 10 µM) was 63.2%. It also gave a viability, T/C [3] of 70.9%, a viability, T/C (second compound 0.1 µM, first compound 0.1 µM) of 75.6% and a viability, T/C [4] of 63.8%. For the same compound, the viability, T/C (second compound 0.1 µM, first compound 1 µM) was 63.1%, the viability, T/C (second compound 0.1 µM, first compound 3.16 µM) was 63% and the viability, T/C (second compound 0.1 µM, first compound 10 µM) was 67.8%. For the same compound, the viability, T/C [5] was 57%, the viability, T/C (second compound 0.316 µM, first compound 0.1 µM) was 60.9% and the viability, T/C [6] was 68.1%. For the same compound, the viability, T/C (second compound 0.316 µM, first compound 1 µM) was 65.2%, the viability, T/C (second compound 0.316 µM, first compound 3.16 µM) was 58.8% and the viability, T/C (second compound 0.316 µM, first compound 10 µM) was 49.1%. For the same compound, the viability, T/C [7] was 62.2%, the viability, T/C (second compound 1 µM, first compound 0.1 µM) was 51.3% and the viability, T/C [8] was 55.7%. The viability, T/C (second compound 1 µM, first compound 1 µM) was 54.1%, the viability, T/C (second compound 1 µM, first compound 3.16 µM) was 72.3% and the viability, T/C (second compound 1 µM, first compound 10 µM) was 56%. It also gave a viability, T/C [9] of 58.1%, a viability, T/C (second compound 3.16 µM, first compound 0.1 µM) of 57.8% and a viability, T/C [10] of 67.9%. The viability, T/C (second compound 3.16 µM, first compound 1 µM) was 53.2%, the viability, T/C (second compound 3.16 µM, first compound 3.16 µM) was 57.3% and the viability, T/C (second compound 3.16 µM, first compound 10 µM) was 48.9%. It also gave a viability, T/C [11] of 41.5%, a viability, T/C (second compound 10 µM, first compound 0.1 µM) of 49.6% and a viability, T/C [12] of 40.6%. For the same compound, the viability, T/C (second compound 10 µM, first compound 1 µM) was 56.8%, the viability, T/C (second compound 10 µM, first compound 3.16 µM) was 73.1% and the viability, T/C (second compound 10 µM, first compound 10 µM) was 47.3%.
